Experimental findings from patent US11753409B2, “Crystalline salts of a B-RAF kinase inhibitor” (Xynomic Pharmaceuticals, Inc., priority 2017, dated 2023) are described below.

What all share (format): physicochemical
Data set [1] in a line: DVS isotherm of Form A (hygroscopicity). The method, then: DVS was measured via a SMS (Surface Measurement Systems) DVS Intrinsic. The relative humidity at 25° C. was calibrated against the deliquescence point of LiCl, Mg(NO3)2 and KCl.
To investigate the solid form stability as a function of humidity, a DVS isotherm plot of Form A of N-(3-(5-((1-ethylpiperidin-4-yl)(methyl)amino)-3-(pyrimidin-5-yl)-1H-pyrrolo[3,2-b]pyridin-1-yl)-2,4-difluorophenyl)propane-1-sulfonamide monosuccinate salt was collected at 25° C. between 0 and 95% RH.

A short description of data set [2]: Solid state stability evaluation. As to the method: Samples of Form A of N-(3-(5-((1-ethylpiperidin-4-yl)(methyl)amino)-3-(pyrimidin-5-yl)-1H-pyrrolo[3,2-b]pyridin-1-yl)-2,4-difluorophenyl)propane-1-sulfonamide monosuccinate salt were stored under at 80° C. for one day, at 25° C. under 60% RH and at 40° C. under 75% RH for one week.
Data set [3] in a line: Equilibrium solubility of Form A in water. As to the method: Equilibrium solubility of Form A in water was measured at room temperature. The solid was suspended into H2O (˜800 rpm) at rt. After 24 h., the suspension was centrifuged (10000 rpm, 5 min) followed by filtration (0.45 μm PTFE membrane). The supernatant (first few drops were discarded) was analyzed by HPLC and the pH was measured. The residual solid was analyzed by XRPD.

Setting [4] is: 25 ° C., 60% RH/1 week (second condition column).
Where [5] appears, read: 25 ° C., 60% RH/1 week (third condition column).

Molecules are shown by their SMILES. “Also recorded” adds a separate entry of the source.

Turning to `CCCS(=O)(=O)Nc1ccc(F)c(-n2cc(-c3cncnc3)c3nc(N(C)C4CCN(CC)CC4)ccc32)c1F.O=C(O)CCC(=O)O` [Monosuccinate Salt, N-(3-(5-((1-Ethylpiperidin-4-yl)(methyl)amino)-3-(pyrimidin-5-yl)-1H-pyrrolo[3,2-b]pyridin-1-yl)-2,4-difluorophenyl)propane-1-sulfonamide monosuccinate salt], the “Water uptake (DVS)” value in data set [1] (25° C./80% RH) is recorded as 0.14%. In data set [1] (DVS at 25° C., 0 to 95% RH, listed as Form A, monosuccinate salt), the Hygroscopicity result is given as “non-hygroscopic; also recorded: low hygroscopicity”. Further, in data set [1] (listed as Form A, monosuccinate salt), the “Form change after DVS testing (XRPD)” value is reported as “did not result in any form change; also recorded: does not change form”. Moreover, the “Form Change” value in data set [2] (setting [4]), in data set [2] (setting [5]) and in data set [2] (80% C/1 day) was “No” in each case. The “Purity (% of Initial)” value is 100.0 % of Initial in data set [2] (setting [4]), 100.1 % of Initial in data set [2] (setting [5]) and 99.9 % of Initial in data set [2] (80% C/1 day). Besides, the “Solid state stability, form change or HPLC purity decrease” value in data set [2] (any of the storage conditions) is reported as “No form change or HPLC purity decrease were observed”. The “Form change during equilibrium solubility testing (XRPD)” value in data set [3] (rt, 24 h, listed as Form A, monosuccinate salt) is given as “no form change; also recorded: does not change”. The molecule also gave a solubility (thermodynamic) at 24 h in data set [3] (thermodynamic from solid, room temperature, HPLC) of 14.3 mg/mL.

Usually thermodynamic solubility stands for solubility found after equilibrating the solid with the medium.
